In the NIST ThermoML archive (doi:10.1016/j.jct.2013.05.029):

How the values were obtained:
[1] = relative permittivity at various frequencies (dimensionless); details: 101 kPa, Liquid, Frequency=0.151 MHz, Parallel plate capacitor
[2] = 101.33 kPa, Liquid, Vibrating tube method
[3] = refractive index (other wavelength) (dimensionless); details: 101 kPa, Liquid, Wavelength=633 nm, Standard Abbe refractometry
[4] = refractive index (other wavelength) (dimensionless); xn = mol fraction of the nth substance listed; details: 101 kPa, Liquid, Wavelength=633 nm, Standard Abbe refractometry

OCCC(F)(F)C(F)(F)C(F)(F)C(F)(F)C(F)(F)C(F)(F)F [1H,1H,2H,2H-perfluorooctanol]
Details | mass density [kg/m3] | refractive index | relative permittivity
[1], 293.15 K | – | – | 9.67
[1], 298.15 K | – | – | 9.21
[1], 303.15 K | – | – | 8.83
[1], 308.15 K | – | – | 8.46
[1], 313.15 K | – | – | 8.12
[2], 291.15 K | 1692.2 | – | –
[2], 293.15 K | 1688.7 | – | –
[2], 295.14 K | 1685.2 | – | –
[2], 298.15 K | 1679.9 | – | –
[2], 300.14 K | 1676.4 | – | –
[2], 303.15 K | 1671 | – | –
[2], 305.14 K | 1667.5 | – | –
[2], 308.15 K | 1662.1 | – | –
[2], 310.14 K | 1658.5 | – | –
[3], 292.89 K | – | 1.3152 | –
[3], 297.98 K | – | 1.3134 | –
[3], 300.94 K | – | 1.3125 | –
[3], 304.98 K | – | 1.3112 | –
[3], 307.95 K | – | 1.3101 | –
[3], 308.13 K | – | 1.31 | –

CCCCn1cc[n+](C)c1.F[B-](F)(F)F [1-butyl-3-methylimidazolium tetrafluoroborate]
Details | mass density [kg/m3] | refractive index
[2], 291.15 K | 1206.3 | –
[2], 293.15 K | 1204.9 | –
[2], 295.14 K | 1203.5 | –
[2], 298.15 K | 1201.3 | –
[2], 300.14 K | 1199.9 | –
[2], 303.15 K | 1197.7 | –
[2], 305.14 K | 1196.3 | –
[2], 308.15 K | 1194.1 | –
[2], 310.14 K | 1192.7 | –
[3], 292.99 K | – | 1.4207
[3], 298.14 K | – | 1.4194
[3], 300.94 K | – | 1.4187
[3], 303.06 K | – | 1.4182
[3], 307.96 K | – | 1.4169

OCCC(F)(F)C(F)(F)C(F)(F)C(F)(F)C(F)(F)C(F)(F)F [1H,1H,2H,2H-perfluorooctanol] + CCCCn1cc[n+](C)c1.F[B-](F)(F)F
[4]
Details | refractive index
568.17 K, x2 = 0.483 | 1.3609
568.17 K, x2 = 0.975 | 1.417
569.9 K, x2 = 0.514 | 1.3635
569.9 K, x2 = 0.972 | 1.4162
570.62 K, x2 = 0.528 | 1.3648
570.62 K, x2 = 0.969 | 1.4157
571.13 K, x2 = 0.539 | 1.3658
571.13 K, x2 = 0.967 | 1.4153
571.88 K, x2 = 0.555 | 1.3673
571.88 K, x2 = 0.963 | 1.4146
572.59 K, x2 = 0.569 | 1.3686
572.59 K, x2 = 0.96 | 1.414
573.11 K, x2 = 0.585 | 1.3701
573.11 K, x2 = 0.958 | 1.4137
573.58 K, x2 = 0.595 | 1.3712
573.58 K, x2 = 0.953 | 1.4128
574.07 K, x2 = 0.61 | 1.3726
574.07 K, x2 = 0.946 | 1.4119
574.57 K, x2 = 0.62 | 1.3736
574.57 K, x2 = 0.944 | 1.4115
575.11 K, x2 = 0.641 | 1.3757
575.11 K, x2 = 0.935 | 1.4102
575.59 K, x2 = 0.663 | 1.378
575.59 K, x2 = 0.93 | 1.4096
576.09 K, x2 = 0.684 | 1.3803
576.09 K, x2 = 0.917 | 1.4078
576.69 K, x2 = 0.729 | 1.3852
576.69 K, x2 = 0.892 | 1.4045
